Experimental findings from patent US12310975B2, “Modulators of BCL6 proteolysis and associated methods of use” (Arvinas Operations, Inc., priority 2019, dated 2025) are described below.

One may read the EC50 as the concentration at which the effect is half-maximal. A high value points to a less potent agent. The IC50 is the midpoint of a concentration-inhibition curve.

The target of one assay is BCL6 (Homo sapiens (Human), UniProt P41182). Put plainly: BCL6 TR-FRET assay (BCL6-Avitag-Biotin / BCoR-Cy5 peptide).
Conditions: not given
The class given is binding. Here is the method: Protein Synthesis. BCL6 protein was expressed by transforming Invitrogen One Shot cells with GS63525 pET24a-His-SUMO-TEV-BCLm-Avitag plasmid following manufacturer's instructions. In addition, biotin at a final concentration of 50 μM, and IPTG at a final concentration of 1 mM was added to the culture and incubated at room temperature shaking overnight.
Assay buffer A: 50 mM HEPES pH 7.5, 125 mM NaCl, 0.01% TritonX.
Assay buffer B (made fresh): buffer A+1 mM Glutathione (or 0.5 mM DTT).
Assay buffer C (made fresh): buffer B+0.03% BSA.
Black Proxy plates, 96 well.
15 μl final reaction volumes (BCoR-Cy5 100 nM, SA-Eu 2 nM, BCL6-avitag 2 nM).
[…] BCL6-Avitag-Biotin stock: made fresh by adding 2 μl of BCL6-Avitag-Biotin to 31.5 ml Buffer C.
1 mM BCoR-Cy5 peptide (LifeTein) stock in Dimethylformamide (DMF).
300 nM BCoR-Cy5 working stock: made fresh by adding 4.5 μl of the 1 mM BCoR-Cy5 peptide stock to 15 ml Buffer B.
10 μM Eu-Streptavidin (Lance Eu-W1024 Streptavidin, PerkinElmer) stock solution.
6 nM Eu-Streptavidin working stock: made fresh by adding 9 μl Eu-Streptavidin stock solution to 15 ml Buffer A.
Compounds were diluted to 10 mM. Twenty microliters of DMSO was aliquoted to each well of the microtiter plates. From the 10 mM compound stock, 8.7 ul was aliquoted to the 20 ul DMSO and 3-fold serial dilutions (12 pt 3-0.01 uM tritration plate, 96 well, 100% DMSO) performed. Five ul from the titration plate wells was aliquoted to 45 ul Buff C (Intermediate dilution plates, 10% DMSO).
Spot 1.5 μl compound titrations to 384-well plates in duplicate, and spot 3.5 μl [8.5 nM] BCL6-bio protein to each well. The plate was mix briefly, centrifuged, and incubated for 30 minutes at room temperature.
Mix 14 mls of BCoR-Cy5 [300 nM] and 14 mls [6 nM] Eu-Streptavidin. Spot 10 μl BCoR-Cy5/SA-Eu (1:1) mix to each well. The plates were incubated for 2 hours and then read on an Envision plate reader.
On to `Cn1c(=O)c(OC2COC2)cc2cc(Nc3nc(N4CCC(CN5CCN(c6ccc7c(c6)C(=O)N(C6CCC(=O)NC6=O)C7=O)CC5)CC4)ncc3Cl)ccc21` (stereo not drawn) [compound 223, 5-(4-((1-(5-chloro-4-((1-methyl-3-(oxetan-3-yloxy)-2-oxo-1,2-dihydroquinolin-6-yl)amino)pyrimidin-2-yl)piperidin-4-yl)methyl)piperazin-1-yl)-2-(2,6-dioxopiperidin-3-yl)isoindoline-1,3-dione], for which the EC50 is greater than 100 nM.
Same read-out and setting: under `CNC(=O)COc1cc2cc(Nc3nc(N4CCC[C@H](COc5cccc6c5C(=O)N(C5CCC(=O)NC5=O)C6=O)C4)ncc3Cl)ccc2n(C)c1=O` (stereo partly drawn) [compound 192, 2-((6-((5-chloro-2-((3S)-3-(((2-(2,6-dioxopiperidin-3-yl)-1,3-dioxoisoindolin-4-yl)oxy)methyl)piperidin-1-yl)pyrimidin-4-yl)amino)-1-methyl-2-oxo-1,2-dihydroquinolin-3-yl)oxy)-N-methylacetamide] stands greater than 100 nM.

The same assay, now with this note: read-out: IC50.
As to `CNC(=O)COc1cc2cc(Nc3nc(N4CCC(O[C@H]5C[C@H](Oc6ccc7c(c6)C(=O)N(C6CCC(=O)NC6=O)C7=O)CN(C)C5)CC4)ncc3Cl)ccc2n(C(C)C)c1=O` (stereo partly drawn) [compound 459, 2-[(6-{[5-chloro-2-(4-{[(3S,5S)-5-{[2-(2,6-dioxopiperidin-3-yl)-1,3-dioxo-2,3-dihydro-1H-isoindol-5-yl]oxy}-1-methylpiperidin-3-yl]oxy}piperidin-1-yl)pyrimidin-4-yl]amino}-2-oxo-1-(propan-2-yl)-1,2-dihydroquinolin-3-yl)oxy]-N-methylacetamide], the IC50 is no less than 0.1 µM.
In the case of `CNC(=O)COc1cc2cc(Nc3nc(N4CCC(N5CCC6(CCN(c7cccc8c7C(=O)N(C7CCC(=O)NC7=O)C8=O)C6)CC5)CC4)ncc3Cl)ccc2n(C(C)C)c1=O` (stereo not drawn) [compound 528, 2-[(6-{[5-chloro-2-(4-{2-[2-(2,6-dioxopiperidin-3-yl)-1,3-dioxo-2,3-dihydro-1H-isoindol-4-yl]-2,8-diazaspiro[4.5]decan-8-yl}piperidin-1-yl)pyrimidin-4-yl]amino}-2-oxo-1-(propan-2-yl)-1,2-dihydroquinolin-3-yl)oxy]-N-methylacetamide], the IC50 was 0.01 to 0.05 µM.
Consider `CNC(=O)COc1cc2cc(Nc3nc(N4CCC(CN5CCCN(c6cccc(N7CCC(=O)NC7=O)c6OC)CC5)CC4)ncc3Cl)ccc2n(C(C)C)c1=O` [compound 535, 2-{[6-({5-chloro-2-[4-({4-[3-(2,4-dioxo-1,3-diazinan-1-yl)-2-methoxyphenyl]-1,4-diazepan-1-yl}methyl)piperidin-1-yl]pyrimidin-4-yl}amino)-2-oxo-1-(propan-2-yl)-1,2-dihydroquinolin-3-yl]oxy}-N-methylacetamide], for which the IC50 was 0.01 to 0.05 µM.
For the compound `CNC(=O)COc1cc2cc(Nc3nc(N4CCC(O[C@H]5C[C@@H](Oc6ccc7c(c6)C(=O)N(C6CCC(=O)NC6=O)C7=O)CN(C)C5)CC4)ncc3Cl)ccc2n(C(C)C)c1=O` (stereo partly drawn) [compound 457, 2-[(6-{[5-chloro-2-(4-{[(3S,5R)-5-{[2-(2,6-dioxopiperidin-3-yl)-1,3-dioxo-2,3-dihydro-1H-isoindol-5-yl]oxy}-1-methylpiperidin-3-yl]oxy}piperidin-1-yl)pyrimidin-4-yl]amino}-2-oxo-1-(propan-2-yl)-1,2-dihydroquinolin-3-yl)oxy]-N-methylacetamide], the IC50 is no less than 0.1 µM.
Same read-out and setting: under `CNC(=O)COc1cc2cc(Nc3nc(N4CCC(CN5CCCN(c6ccc(OC)c(N7CCC(=O)NC7=O)c6)CC5)CC4)ncc3Cl)ccc2n(C(C)C)c1=O` [compound 530, 2-{[6-({5-chloro-2-[4-({4-[3-(2,4-dioxo-1,3-diazinan-1-yl)-4-methoxyphenyl]-1,4-diazepan-1-yl}methyl)piperidin-1-yl]pyrimidin-4-yl}amino)-2-oxo-1-(propan-2-yl)-1,2-dihydroquinolin-3-yl]oxy}-N-methylacetamide] stands 0.01 to 0.05 µM.
Still for that read-out and setting: under `CNC(=O)COc1cc2cc(Nc3nc(N4CCC(O[C@@H]5C[C@H](Oc6cccc7c6C(=O)N(C6CCC(=O)NC6=O)C7=O)CN(C)C5)CC4)ncc3Cl)ccc2n(C(C)C)c1=O` (stereo partly drawn) [compound 487, 2-[(6-{[5-chloro-2-(4-{[(3R,5S)-5-{[2-(2,6-dioxopiperidin-3-yl)-1,3-dioxo-2,3-dihydro-1H-isoindol-4-yl]oxy}-1-methylpiperidin-3-yl]oxy}piperidin-1-yl)pyrimidin-4-yl]amino}-2-oxo-1-(propan-2-yl)-1,2-dihydroquinolin-3-yl)oxy]-N-methylacetamide] stands no less than 0.1 µM.
As for `CNC(=O)COc1cc2cc(Nc3nc(N4CCC(O[C@H]5C[C@@H](COc6ccc7c(c6)C(=O)N(C6CCC(=O)NC6=O)C7=O)N(C)C5)CC4)ncc3Cl)ccc2n(C(C)C)c1=O` (stereo partly drawn) [compound 456, 2-[(6-{[5-chloro-2-(4-{[(3S,5S)-5-({[2-(2,6-dioxopiperidin-3-yl)-1,3-dioxo-2,3-dihydro-1H-isoindol-5-yl]oxy}methyl)-1-methylpyrrolidin-3-yl]oxy}piperidin-1-yl)pyrimidin-4-yl]amino}-2-oxo-1-(propan-2-yl)-1,2-dihydroquinolin-3-yl)oxy]-N-methylacetamide], the IC50 was no less than 0.1 µM.
As to `CNC(=O)COc1cc2cc(Nc3nc(N4CCC(O[C@@H]5C[C@@H](COc6cccc7c6C(=O)N(C6CCC(=O)NC6=O)C7=O)N(C)C5)CC4)ncc3Cl)ccc2n(C(C)C)c1=O` (stereo partly drawn) [compound 478, 2-[(6-{[5-chloro-2-(4-{[(3R,5S)-5-({[2-(2,6-dioxopiperidin-3-yl)-1,3-dioxo-2,3-dihydro-1H-isoindol-4-yl]oxy}methyl)-1-methylpyrrolidin-3-yl]oxy}piperidin-1-yl)pyrimidin-4-yl]amino}-2-oxo-1-(propan-2-yl)-1,2-dihydroquinolin-3-yl)oxy]-N-methylacetamide], the IC50 is no less than 0.1 µM.
On to `CNC(=O)COc1cc2cc(Nc3nc(N4CCC(O[C@@H]5C[C@H](COc6ccc7c(c6)C(=O)N(C6CCC(=O)NC6=O)C7=O)N(C)C5)CC4)ncc3Cl)ccc2n(C(C)C)c1=O` (stereo partly drawn) [compound 460, 2-[(6-{[5-chloro-2-(4-{[(3R,5R)-5-({[2-(2,6-dioxopiperidin-3-yl)-1,3-dioxo-2,3-dihydro-1H-isoindol-5-yl]oxy}methyl)-1-methylpyrrolidin-3-yl]oxy}piperidin-1-yl)pyrimidin-4-yl]amino}-2-oxo-1-(propan-2-yl)-1,2-dihydroquinolin-3-yl)oxy]-N-methylacetamide], for which the IC50 is no less than 0.1 µM.
As for `CNC(=O)COc1cc2cc(Nc3nc(N4CCC(O[C@@H]5C[C@H](COc6cccc7c6C(=O)N(C6CCC(=O)NC6=O)C7=O)N(C)C5)CC4)ncc3Cl)ccc2n(C(C)C)c1=O` (stereo partly drawn) [compound 486, 2-[(6-{[5-chloro-2-(4-{[(3R,5R)-5-({[2-(2,6-dioxopiperidin-3-yl)-1,3-dioxo-2,3-dihydro-1H-isoindol-4-yl]oxy}methyl)-1-methylpyrrolidin-3-yl]oxy}piperidin-1-yl)pyrimidin-4-yl]amino}-2-oxo-1-(propan-2-yl)-1,2-dihydroquinolin-3-yl)oxy]-N-methylacetamide], the concentration for half-maximal inhibition (IC50) is no less than 0.1 µM.
`CNC(=O)COc1cc2cc(Nc3nc(N4CCC(O[C@@H]5C[C@@H](Oc6ccc7c(c6)C(=O)N(C6CCC(=O)NC6=O)C7=O)CN(C)C5)CC4)ncc3Cl)ccc2n(C(C)C)c1=O` (stereo partly drawn) [compound 464, 2-[(6-{[5-chloro-2-(4-{[(3R,5R)-5-{[2-(2,6-dioxopiperidin-3-yl)-1,3-dioxo-2,3-dihydro-1H-isoindol-5-yl]oxy}-1-methylpiperidin-3-yl]oxy}piperidin-1-yl)pyrimidin-4-yl]amino}-2-oxo-1-(propan-2-yl)-1,2-dihydroquinolin-3-yl)oxy]-N-methylacetamide]: the IC50 is no less than 0.1 µM.
Turning to `CNC(=O)COc1cc2cc(Nc3nc(N4CCC(CN5CCC6(CC5)CCN(c5ccc(N7CCC(=O)NC7=O)c(OC)c5)C6)CC4)ncc3Cl)ccc2n(C(C)C)c1=O` [compound 509, 2-{[6-({5-chloro-2-[4-({2-[4-(2,4-dioxo-1,3-diazinan-1-yl)-3-methoxyphenyl]-2,8-diazaspiro[4.5]decan-8-yl}methyl)piperidin-1-yl]pyrimidin-4-yl}amino)-2-oxo-1-(propan-2-yl)-1,2-dihydroquinolin-3-yl]oxy}-N-methylacetamide], the IC50 is no less than 0.1 µM.
For the compound `CNC(=O)COc1cc2cc(Nc3nc(N4CCC(O[C@@H]5C[C@@H](Oc6cccc7c6C(=O)N(C6CCC(=O)NC6=O)C7=O)CN(C)C5)CC4)ncc3Cl)ccc2n(C(C)C)c1=O` (stereo partly drawn) [compound 479, 2-[(6-{[5-chloro-2-(4-{[(3R,5R)-5-{[2-(2,6-dioxopiperidin-3-yl)-1,3-dioxo-2,3-dihydro-1H-isoindol-4-yl]oxy}-1-methylpiperidin-3-yl]oxy}piperidin-1-yl)pyrimidin-4-yl]amino}-2-oxo-1-(propan-2-yl)-1,2-dihydroquinolin-3-yl)oxy]-N-methylacetamide], the IC50 was no less than 0.1 µM.
